ChEMBL document CHEMBL3994625, “Crystal structures, binding interactions, and ADME evaluation of brain penetrant N-substituted indazole-5-carboxamides as subnanomolar, selective monoamine oxidase B and dual MAO-A/B inhibitors” (Eur J Med Chem, 2017)
Values after ≈ are worked out from the molar mass of the structure shown.

Tested on: not listed separately
Assay: Effective permeability of the compound at pH 7.4 at 200 uM after 4 hrs by PAMPA-GI assay
Format: physicochemical
Conditions: read-out: Peff

| Compound | Papp at 4 h, 200 µM [×10⁻⁶ cm/s] |
| --- | --- |
| Cn1ncc2cc(C(=O)Nc3ccc(F)c(Cl)c3)ccc21 | 31.7 |

Tested on: not listed separately
Assay: n-octanol-phosphate buffer distribution coefficient, log D of the compound at pH 7.4 after 90 mins by shake-flask method
Format: physicochemical
Conditions: not given

| Compound | logD at […] |
| --- | --- |
| COCCc1ccc(OCC(O)CNC(C)C)cc1 (stereo unspecified) [METOPROLOL] | -0.37 |

Tested on: not listed separately
Assay: physchem
Conditions: phosphate buffer, pH 5.5

| Compound | solubility kinetic at […], 500 µM [µM] |
| --- | --- |
| Cn1ncc2cc(C(=O)Nc3ccc(F)c(Cl)c3)ccc21 | 69.1 (≈ 21 µg/mL) |

Species on record: Homo sapiens
Assay: Selectivity index, ratio of IC50 for recombinant human MAOA to IC50 for recombinant human MAOB
Conditions: not given

| Compound | Ratio IC50 |
| --- | --- |
| Cn1cc2cc(C(=O)Nc3ccc(F)c(F)c3)ccc2n1 | 20 |
| O=C(Nc1ccccc1)c1ccc2[nH]ncc2c1 | > 86 |
| Cn1ncc2cc(C(=O)Nc3ccc(F)c(F)c3)ccc21 | 6580 |
| O=C(Nc1ccc(Cl)c(Cl)c1)c1ccc2[nH]ncc2c1 | 17100 |

Tested on: not listed separately
Assay: Effective permeability of the compound at pH 7.4 at 200 uM after 4 hrs by PAMPA-BBB assay
Format: physicochemical
Conditions: read-out: Peff

| Compound | Papp at 4 h, 200 µM [×10⁻⁶ cm/s] |
| --- | --- |
| Cn1ncc2cc(C(=O)Nc3ccc(F)c(Cl)c3)ccc21 | 37.6 |

Tested on: not listed separately
Assay: Effective permeability of the compound at pH 5.5 at 200 uM after 4 hrs by PAMPA-GI assay
Format: physicochemical
Conditions: read-out: Peff

| Compound | Papp at 4 h, 200 µM [×10⁻⁶ cm/s] |
| --- | --- |
| Cn1ncc2cc(C(=O)Nc3ccc(F)c(Cl)c3)ccc21 | 29.5 |

Tested on: not listed separately
Assay: n-octanol-phosphate buffer distribution coefficient, log D of the compound at pH 2 after 90 mins by shake-flask method
Format: physicochemical
Conditions: not given

| Compound | logD at […] |
| --- | --- |
| Cn1ncc2cc(C(=O)Nc3ccc(F)c(Cl)c3)ccc21 | 2.39 |
| COCCc1ccc(OCC(O)CNC(C)C)cc1 (stereo unspecified) [METOPROLOL] | -2.46 |

Tested on: not listed separately
Assay: Effective permeability of the compound at pH 2 at 200 uM after 4 hrs by PAMPA-GI assay
Format: physicochemical
Conditions: read-out: Peff

| Compound | Papp at 4 h, 200 µM [×10⁻⁶ cm/s] |
| --- | --- |
| Cn1ncc2cc(C(=O)Nc3ccc(F)c(Cl)c3)ccc21 | 27.2 |

Tested on: not listed separately
Assay: n-octanol-phosphate buffer distribution coefficient, log D of the compound at pH 5.5 after 90 mins by shake-flask method
Format: physicochemical
Conditions: not given

| Compound | logD at […] |
| --- | --- |
| Cn1ncc2cc(C(=O)Nc3ccc(F)c(Cl)c3)ccc21 | 2.52 |
| COCCc1ccc(OCC(O)CNC(C)C)cc1 (stereo unspecified) [METOPROLOL] | -0.76 |

Tested on: not listed separately
Assay: physchem
Conditions: phosphate buffer, pH 7.4

| Compound | solubility kinetic at […], 500 µM [µM] |
| --- | --- |
| Cn1ncc2cc(C(=O)Nc3ccc(F)c(Cl)c3)ccc21 | 77.4 (≈ 23.5 µg/mL) |

Tested on: not listed separately
Assay: physchem
Conditions: phosphate buffer, pH 2

| Compound | solubility kinetic at […], 500 µM [µM] |
| --- | --- |
| Cn1ncc2cc(C(=O)Nc3ccc(F)c(Cl)c3)ccc21 | 57.5 (≈ 17.5 µg/mL) |
